The NIST ThermoML archive (doi:10.1021/je1012235)
Numbers after ± are expanded uncertainties.

Settings: 333.15 K; 101.33 kPa; Liquid; Vibrating tube method

Going from `CCCCCCCCCCCCCCCCCCCCCC(=O)OC` [methyl docosanoate] to `CCCCCCCCCCCCCCCCCCCC(=O)OCC` [ethyl eicosanoate], the mass density falls from 834.5 ± 1 kg/m3 to 830.5 ± 1.2 kg/m3.

Compared with `CCCCC/C=C\C/C=C\CCCCCCCC(=O)OCC` [ethyl linoleate], `CC/C=C\C/C=C\C/C=C\CCCCCCCC(=O)OCC` [ethyl 9,12,15-octadecatrienoate] is higher in mass density: 853.3 ± 1 kg/m3 for the first, 863.5 ± 1 kg/m3 for the second.

Compared with `CCCCCCCC/C=C\CCCCCCCCCC(=O)OC` [methyl cis-11-eicosenoate], `CCCCCCCC/C=C\CCCCCCCCCCCC(=O)OC` [methyl (Z)-13-docosenoate] is lower in mass density: 845.2 ± 1.2 kg/m3 for the first, 842.4 ± 1 kg/m3 for the second.

In the case of `CCCCCC/C=C\CCCCCCCC(=O)OC` [methyl (Z)-9-hexadecenoate], the mass density is reported as 838.7 ± 1 kg/m3.

Same assay, conditions: 338.15 K; 101.33 kPa; Liquid

`CC/C=C\C/C=C\C/C=C\CCCCCCCC(=O)OC` [methyl (Z,Z,Z)-9,12,15-octadecatrienoate] and `CC/C=C\C/C=C\C/C=C\CCCCCCCC(=O)OCC` [ethyl 9,12,15-octadecatrienoate] are within error of each other in viscosity: 1.966 ± 0.029 mPa·s for the first, 2 ± 0.029 mPa·s for the second.

First: CCCCCCCCCCCCCCCCCCCC(=O)OC [methyl eicosanoate]
Second: CCCCCCCCCCCCCCCCCCCCCC(=O)OC [methyl docosanoate]
The viscosity of the first is lower: 3.517 ± 0.045 mPa·s for the first, 4.274 ± 0.057 mPa·s for the second.

First: CCCCCCCCCCCCCCCCCCCC(=O)OCC [ethyl eicosanoate]
Second: CCCCCCCCCCCCCCCCCCCCCCCC(=O)OC [methyl tetracosanoate]
The viscosity of the first is lower: 3.671 ± 0.059 mPa·s for the first, 5.139 ± 0.068 mPa·s for the second.

Compared with `CCCCC/C=C\C/C=C\CCCCCCCC(=O)OCC` [ethyl linoleate], `CCCCCC/C=C\CCCCCCCC(=O)OC` [methyl (Z)-9-hexadecenoate] is lower in viscosity: 2.241 ± 0.032 mPa·s for the first, 1.728 ± 0.026 mPa·s for the second.

Going from `CCCCCCCC/C=C\CCCCCCCCCC(=O)OC` [methyl cis-11-eicosenoate] to `CCCCCCCC/C=C\CCCCCCCCCCCC(=O)OC` [methyl (Z)-13-docosenoate], the viscosity rises from 3.028 ± 0.049 mPa·s to 3.548 ± 0.048 mPa·s.

Same assay, conditions: 338.15 K; 101.33 kPa; Liquid; Vibrating tube method

First: CC/C=C\C/C=C\C/C=C\CCCCCCCC(=O)OC [methyl (Z,Z,Z)-9,12,15-octadecatrienoate]
Second: CC/C=C\C/C=C\C/C=C\CCCCCCCC(=O)OCC [ethyl 9,12,15-octadecatrienoate]
The mass density of the first is higher: 868.6 ± 1 kg/m3 for the first, 859.9 ± 1 kg/m3 for the second.

`CCCCCCCCCCCCCCCCCCCC(=O)OC` [methyl eicosanoate] and `CCCCCCCCCCCCCCCCCCCCCC(=O)OC` [methyl docosanoate] are within error of each other in mass density: 831.4 ± 1 kg/m3 for the first, 831 ± 1 kg/m3 for the second.

First: CCCCCCCCCCCCCCCCCCCC(=O)OCC [ethyl eicosanoate]
Second: CCCCCCCCCCCCCCCCCCCCCCCC(=O)OC [methyl tetracosanoate]
The mass density of the first is lower: 827 ± 1.2 kg/m3 for the first, 830.5 ± 1 kg/m3 for the second.

First: CCCCC/C=C\C/C=C\CCCCCCCC(=O)OCC [ethyl linoleate]
Second: CCCCCC/C=C\CCCCCCCC(=O)OC [methyl (Z)-9-hexadecenoate]
The mass density of the first is higher: 849.7 ± 1 kg/m3 for the first, 834.9 ± 1 kg/m3 for the second.

First: CCCCCCCC/C=C\CCCCCCCCCC(=O)OC [methyl cis-11-eicosenoate]
Second: CCCCCCCC/C=C\CCCCCCCCCCCC(=O)OC [methyl (Z)-13-docosenoate]
The mass density of the first is higher: 841.7 ± 1.2 kg/m3 for the first, 839 ± 1 kg/m3 for the second.

Same assay, conditions: 343.15 K; 101.33 kPa; Liquid

`CC/C=C\C/C=C\C/C=C\CCCCCCCC(=O)OC` [methyl (Z,Z,Z)-9,12,15-octadecatrienoate] and `CC/C=C\C/C=C\C/C=C\CCCCCCCC(=O)OCC` [ethyl 9,12,15-octadecatrienoate] are within error of each other in viscosity: 1.817 ± 0.027 mPa·s for the first, 1.866 ± 0.027 mPa·s for the second.

First: CCCCCCCCCCCCCCCCCCCC(=O)OC [methyl eicosanoate]
Second: CCCCCCCCCCCCCCCCCCCCCC(=O)OC [methyl docosanoate]
The viscosity of the first is lower: 3.196 ± 0.042 mPa·s for the first, 3.866 ± 0.052 mPa·s for the second.

Compared with `CCCCCCCCCCCCCCCCCCCC(=O)OCC` [ethyl eicosanoate], `CCCCCCCCCCCCCCCCCCCCCCCC(=O)OC` [methyl tetracosanoate] is higher in viscosity: 3.337 ± 0.054 mPa·s for the first, 4.628 ± 0.062 mPa·s for the second.

First: CCCCC/C=C\C/C=C\CCCCCCCC(=O)OCC [ethyl linoleate]
Second: CCCCCC/C=C\CCCCCCCC(=O)OC [methyl (Z)-9-hexadecenoate]
The viscosity of the first is higher: 2.075 ± 0.03 mPa·s for the first, 1.595 ± 0.024 mPa·s for the second.

First: CCCCCCCC/C=C\CCCCCCCCCC(=O)OC [methyl cis-11-eicosenoate]
Second: CCCCCCCC/C=C\CCCCCCCCCCCC(=O)OC [methyl (Z)-13-docosenoate]
The viscosity of the first is lower: 2.771 ± 0.045 mPa·s for the first, 3.234 ± 0.044 mPa·s for the second.

Same assay, conditions: 343.15 K; 101.33 kPa; Liquid; Vibrating tube method

Going from `CC/C=C\C/C=C\C/C=C\CCCCCCCC(=O)OC` [methyl (Z,Z,Z)-9,12,15-octadecatrienoate] to `CC/C=C\C/C=C\C/C=C\CCCCCCCC(=O)OCC` [ethyl 9,12,15-octadecatrienoate], the mass density falls from 864.9 ± 1 kg/m3 to 856.2 ± 1 kg/m3.

`CCCCCCCCCCCCCCCCCCCC(=O)OC` [methyl eicosanoate] and `CCCCCCCCCCCCCCCCCCCCCC(=O)OC` [methyl docosanoate] are within error of each other in mass density: 827.8 ± 1 kg/m3 for the first, 827.5 ± 1 kg/m3 for the second.

Going from `CCCCCCCCCCCCCCCCCCCC(=O)OCC` [ethyl eicosanoate] to `CCCCCCCCCCCCCCCCCCCCCCCC(=O)OC` [methyl tetracosanoate], the mass density rises from 823.5 ± 1.2 kg/m3 to 827.1 ± 1 kg/m3.

First: CCCCC/C=C\C/C=C\CCCCCCCC(=O)OCC [ethyl linoleate]
Second: CCCCCC/C=C\CCCCCCCC(=O)OC [methyl (Z)-9-hexadecenoate]
The mass density of the first is higher: 846 ± 1 kg/m3 for the first, 831.1 ± 1 kg/m3 for the second.

Compared with `CCCCCCCC/C=C\CCCCCCCCCC(=O)OC` [methyl cis-11-eicosenoate], `CCCCCCCC/C=C\CCCCCCCCCCCC(=O)OC` [methyl (Z)-13-docosenoate] is lower in mass density: 838.2 ± 1.2 kg/m3 for the first, 835.5 ± 1 kg/m3 for the second.

Same assay, conditions: 348.15 K; 101.33 kPa; Liquid

Compared with `CC/C=C\C/C=C\C/C=C\CCCCCCCC(=O)OC` [methyl (Z,Z,Z)-9,12,15-octadecatrienoate], `CC/C=C\C/C=C\C/C=C\CCCCCCCC(=O)OCC` [ethyl 9,12,15-octadecatrienoate] is higher in viscosity: 1.688 ± 0.025 mPa·s for the first, 1.745 ± 0.026 mPa·s for the second.

Compared with `CCCCCCCCCCCCCCCCCCCC(=O)OC` [methyl eicosanoate], `CCCCCCCCCCCCCCCCCCCCCC(=O)OC` [methyl docosanoate] is higher in viscosity: 2.918 ± 0.038 mPa·s for the first, 3.513 ± 0.048 mPa·s for the second.

Compared with `CCCCCCCCCCCCCCCCCCCC(=O)OCC` [ethyl eicosanoate], `CCCCCCCCCCCCCCCCCCCCCCCC(=O)OC` [methyl tetracosanoate] is higher in viscosity: 3.046 ± 0.049 mPa·s for the first, 4.189 ± 0.056 mPa·s for the second.

First: CCCCC/C=C\C/C=C\CCCCCCCC(=O)OCC [ethyl linoleate]
Second: CCCCCC/C=C\CCCCCCCC(=O)OC [methyl (Z)-9-hexadecenoate]
The viscosity of the first is higher: 1.927 ± 0.028 mPa·s for the first, 1.482 ± 0.023 mPa·s for the second.

First: CCCCCCCC/C=C\CCCCCCCCCC(=O)OC [methyl cis-11-eicosenoate]
Second: CCCCCCCC/C=C\CCCCCCCCCCCC(=O)OC [methyl (Z)-13-docosenoate]
The viscosity of the first is lower: 2.546 ± 0.042 mPa·s for the first, 2.961 ± 0.041 mPa·s for the second.

Same assay, conditions: 348.15 K; 101.33 kPa; Liquid; Vibrating tube method

Going from `CC/C=C\C/C=C\C/C=C\CCCCCCCC(=O)OC` [methyl (Z,Z,Z)-9,12,15-octadecatrienoate] to `CC/C=C\C/C=C\C/C=C\CCCCCCCC(=O)OCC` [ethyl 9,12,15-octadecatrienoate], the mass density falls from 861.2 ± 1 kg/m3 to 852.5 ± 1 kg/m3.

`CCCCCCCCCCCCCCCCCCCC(=O)OC` [methyl eicosanoate] and `CCCCCCCCCCCCCCCCCCCCCC(=O)OC` [methyl docosanoate] are within error of each other in mass density: 824.3 ± 1 kg/m3 for the first, 824.1 ± 1 kg/m3 for the second.

First: CCCCCCCCCCCCCCCCCCCC(=O)OCC [ethyl eicosanoate]
Second: CCCCCCCCCCCCCCCCCCCCCCCC(=O)OC [methyl tetracosanoate]
The mass density of the first is lower: 820 ± 1.2 kg/m3 for the first, 823.7 ± 1 kg/m3 for the second.

Compared with `CCCCC/C=C\C/C=C\CCCCCCCC(=O)OCC` [ethyl linoleate], `CCCCCC/C=C\CCCCCCCC(=O)OC` [methyl (Z)-9-hexadecenoate] is lower in mass density: 842.4 ± 1 kg/m3 for the first, 827.3 ± 1 kg/m3 for the second.

First: CCCCCCCC/C=C\CCCCCCCCCC(=O)OC [methyl cis-11-eicosenoate]
Second: CCCCCCCC/C=C\CCCCCCCCCCCC(=O)OC [methyl (Z)-13-docosenoate]
The mass density of the first is higher: 834.6 ± 1.2 kg/m3 for the first, 832 ± 1 kg/m3 for the second.

Same assay, conditions: 353.15 K; 101.33 kPa; Liquid

First: CC/C=C\C/C=C\C/C=C\CCCCCCCC(=O)OC [methyl (Z,Z,Z)-9,12,15-octadecatrienoate]
Second: CC/C=C\C/C=C\C/C=C\CCCCCCCC(=O)OCC [ethyl 9,12,15-octadecatrienoate]
The viscosity of the first is lower: 1.583 ± 0.024 mPa·s for the first, 1.636 ± 0.025 mPa·s for the second.

Compared with `CCCCCCCCCCCCCCCCCCCC(=O)OC` [methyl eicosanoate], `CCCCCCCCCCCCCCCCCCCCCC(=O)OC` [methyl docosanoate] is higher in viscosity: 2.674 ± 0.035 mPa·s for the first, 3.207 ± 0.044 mPa·s for the second.

First: CCCCCCCCCCCCCCCCCCCC(=O)OCC [ethyl eicosanoate]
Second: CCCCCCCCCCCCCCCCCCCCCCCC(=O)OC [methyl tetracosanoate]
The viscosity of the first is lower: 2.78 ± 0.045 mPa·s for the first, 3.81 ± 0.051 mPa·s for the second.

First: CCCCC/C=C\C/C=C\CCCCCCCC(=O)OCC [ethyl linoleate]
Second: CCCCCC/C=C\CCCCCCCC(=O)OC [methyl (Z)-9-hexadecenoate]
The viscosity of the first is higher: 1.773 ± 0.026 mPa·s for the first, 1.366 ± 0.021 mPa·s for the second.

`CCCCCCCC/C=C\CCCCCCCCCC(=O)OC` [methyl cis-11-eicosenoate] showed a viscosity of 2.348 ± 0.039 mPa·s.
